“Also recorded” adds a separate entry of the source. Starred links: 1 amine or outer side, 2 acyl side, 3 side chain; linkers in the order of their positions; H or OH if unused. Positions of bridges follow the written chain, without caps; N, C: chain ends. Residues, ends and D or L forms follow the SMILES beside them. X1 = O=C(CC1(S[*:2])CCCCC1)[*:1]
How the values were obtained:
[1] = tested on: wild-type mice; experiment: Food intake after an overnight fast in wild-type mice injected with Compound 1; format: in vivo; conditions: wild-type mice at 7-8 weeks of age, versus saline
Method: It was also investigated whether Compound 1 acts as a generic appetite stimulant. To test this idea, the impact of injecting Compound 1 after an overnight fast in wild-type mice at 7-8 weeks of age (FIG. 11, diamond data points) was tested.

[2] = tested on: wild-type C57BL6/J females; experiment: Block of the impact of central injection of AVP (3 ng i.c.v.) on food intake after an overnight fast; format: in vivo, mice; conditions: fasted wild-type females; for reversal of AVP-induced hypophagia (1 hour food intake): peripheral injection, Compound 1 7 μg/kg, SR49059 2 mg/kg, AVP 3 ng i.c.v.
Method: First, it was confirmed that the antagonist compounds act as predicted by assessing their ability to block the impact of central injection of AVP (3 ng i.c.v.) on food intake after an overnight fast in wild-type C57BL6/J females.

[3] = tested on: GED mice; experiment: Food intake of GED mice during an aphagic episode after i.p. injection of an AVPR1A antagonist; format: in vivo; conditions: for food intake versus saline-injected GED mice, 1 hour after treatment: Compound 1 7 μg/kg, SR49059 2 mg/kg
Method: In the morning of the first day of an aphagic episode (≧18 hr of aphagia), GED mice were injected i.p. with 7 μg/kg Compound 1 (Sigma) vs. saline.
To determine the extent to which treatment with Compound 1 rescued the normal drive to re-feed after overnight fast, food intake in a group of saline-injected GED mice that were eating normally were also measured, and were then subjected to an investigator-initiated overnight fast (a condition when AVPR1A should not be elevated in the amygdala) (triangle data points, FIG. 11).
Next, the possibility that AVPR1A antagonists could be used to restore feeding behavior in GED mice during an acute aphagic episode was explored. It was studied whether peripheral injection of Compound 1 and SR49059 can reverse anorexigenic behavior in the GED mouse model. To this end, the impact of i.p. injections of […] of Compound 1 vs. 2 mg/kg SR49059 vs. saline in the morning of the first day of an aphagic episode (≧18 h of aphagia) was assessed.
Mice were given ad libitum access to food immediately after the injection and food intake was measured after 1 hour and 2 hours.

[4] = tested on: Avpr1a−/− mutants (AVPR1a KO); experiment: Intra-amygdala AVP injection, food intake in Avpr1a-/- mutants; format: in vivo, mice; conditions: 0.03 ng AVP intra-amygdala vs. saline
Method: (§1) In this example, it was tested whether the anorexic effect of AVP can also be achieved by intra-amygdala injections. The amygdala is a long structure extending from −0.58 mm to −2.5 mm to Bregma. To select the stereotaxic coordinates for the injections, qPCR for Avpr1a on serial 200 μm vibratome sections was performed across the entire amygdala. A peak of expression at −1.4 mm was observed. Unilateral injections of 0.03 ng AVP (vs. saline, in a random crossover design) were made into the amygdala of wild-type mice at this position (dorso-ventral −4.5 mm, lateral −2.4 mm (right side) and rostro-caudal −1.4 mm) (see FIG. 13A).
Since AVP can also bind to AVPR1b and OxtR, the intra-amygdala injections were repeated in Avpr1a−/− mutants (AVPR1a KO) as described above for the wild-type mice.

[5] = tested on: wild-type mice; experiment: Intra-amygdala AVP injection, food intake in wild-type mice; format: in vivo; conditions: 0.03 ng AVP unilateral intra-amygdala vs. saline
Method: as §1

[6] = GED mice during aphagic episode, i.p., 1 hour

COc1ccc(CC2NC(=O)CC3(CCCCC3)SSCC(C(=O)N3CCCC3C(=O)NC(CCCN=C(N)N)C(=O)NCC(N)=O)NC(=O)C(CC(N)=O)NC(=O)C(CCC(N)=O)NC(=O)C(Cc3ccccc3)NC2=O)cc1 (stereo not drawn) [Compound 1, 1-(beta-mercapto-betabeta-cycopentamethylenepropionic acid)-2-(O-methyl-Tyr)-argipressin] (Y(Me)FQNCPRG-NH2; linker N-5 via X1; configuration not given here)
food intake in wild-type animals after an overnight fast [1]: did not impact food intake | reversal of AVP-induced hypophagia (1 hour food intake) [2]: can restore 1 hour food intake; also recorded: able to reverse hypophagia | rescue of food intake at 1 hour relative to normally eating GED mice after overnight fast ([3]; 7 μg/kg dose, 1 hour): partial rescue | rescue of food intake at 2 hours relative to normally eating GED mice after overnight fast ([3]; 7 μg/kg dose, 2 hour): nearly normalized | food intake versus saline-injected GED mice, 2 hours after treatment ([3]; GED mice during aphagic episode, i.p., 2 hours): consumed significantly more food | food intake versus saline-injected GED mice, 1 hour after treatment [3, 6]: consumed significantly more food

COc1ccc(S(=O)(=O)N2c3ccc(Cl)cc3[C@](O)(c3ccccc3Cl)[C@@H]2C(=O)N2CCC[C@H]2C(N)=O)cc1OC [SR49059]
reversal of AVP-induced hypophagia (1 hour food intake) ([2]; 2 mg/kg): did not significantly reverse AVP-induced hypophagia; also recorded: did not have that effect | food intake versus saline-injected GED mice, 1 hour after treatment [3, 6]: did not enhance food intake

NC(=O)CC[C@@H]1NC(=O)[C@H](Cc2ccccc2)NC(=O)[C@H](Cc2ccc(O)cc2)NC(=O)[C@@H](N)CSSC[C@@H](C(=O)N2CCC[C@H]2C(=O)N[C@@H](CCCN=C(N)N)C(=O)NCC(N)=O)NC(=O)[C@H](CC(N)=O)NC1=O [AVP, arginine vasopressin]
effect of intra-amygdala AVP on food intake, Avpr1a−/− mutants [4]: did not affect food intake; also recorded: anorexic effect is not observed | effect of intra-amygdala AVP on food intake, wild-type mice [5]: food intake was reduced | effect of central injection of AVP on food intake ([2]; 3 ng AVP i.c.v. vs. saline): hypophagia

— US20180085423A1, “METHODS FOR TREATING AND DIAGNOSING EATING DISORDERS” (THE TRUSTEES OF COLUMBIA UNIVERSITY IN THE CITY OF NEW YORK, priority 2015, published 2018)
